We go through 3 compounds from US20150038674A1, “USE OF GLP-2 ANALOGUES IN PULMONARY DISEASES FOR THERAPEUTIC PURPOSE” (priority 2013, published 2015).

For one series, the system named is active caspase-3. In words: Active caspase-3 immunoreactivity (labeling index) in alveolar area. The format is in vivo, mouse. The settings on record: male BALB/c mice, active caspase-3 immunoreactive cells, teduglutide 200 μg/kg s.c. every 12 hours for 10 days, TNF-alpha 15 μg/kg i.p., Act D 800 μg/kg i.p. As to the method:
(§1) In this study, 8-10 months male BALB/c mice were used. Mice were divided into 6 groups: • Group I (Control group): Mice injected with 0.1% dimethylsulfoxide (DMSO) and phosphate buffered saline (PBS, pH 7.4) via intraperitoneal way. • Group II: Mice injected with 15 μg/kg TNF-alpha (dissolved in PBS) with single dose via intraperitoneal way. • Group III: Mice injected with 800 μg/kg Act D (dissolved in DMSO) with single dose via intraperitoneal way. • Group IV: The mice given with TNF-alpha 2 minutes after Act D is administered in doses and mode of administrations above. • Group V: The mice given with 200 μg/kg teduglutide (dissolved in PBS) for 10 days uninterruptedly in every 12 hours via subcutaneous injection. • Group VI: TNF-alpha was injected to mice to which teduglutide was administered for 10 days as mentioned above, 2 minutes after Act D was administered in 11th day in above doses and mode of administration.
(§2) The mice in Group V were cut with cervical dislocation 16.5 hours after the last administration, and the mice in other groups were cut 4.5 hours after the last administration, and the lung samples were taken for microscopic and biochemical analysis.
For the identification of apoptosis in the tissue, as another way, active caspase-3 immunoreactivity was tested. For this purpose, streptavidin-biotin-peroxidase immune method was used. Sections of left lung fixed with neutral formalin were treated with 0.3% triton X-100 for 10 minutes after dewaxing and rehydratation. Following this process, they heated in 10 mM citrate buffer (pH 6.0) for 15 min in a microwave oven. The sections were incubated for 10 minutes with 3% H2O2 for blocking of endogenous peroxidase activity. The next steps were performed according to the instructions in Histostain Plus Broad Spectrum Kit (Invitrogen). The sections were incubated with polyclonal rabbit active caspase 3 antibody (1:50 in PBS, Millipore) for 1 hour at room temperature.
Immunoreaction was developed with 3-amino-9-ethylcarbazole. The sections were stained with Mayer's hematoxilin following immunostaining. PBS or nonspecific rabbit IgG primary antibody were used as negative controls.
Quantitative analysis of immunoreactive cells labeled with caspase-3 antibody was made with light microscope at ×400 magnification. For the immunoreactive cell count, 5 randomly selected fields of alveolar areas without bronchioles were examined in the lung sections of each mouse. The labeling index for caspase-3 was calculated as a percentage of immunoreactive cells in the total number of cells counted per section.

For series [1], the system named is superoxide dismutase (SOD). In words: Superoxide dismutase activity in lung tissue. The class given is in vivo, mouse. The settings on record: male BALB/c mice, Mean ± SD, same dosing groups.
In another series the test system is catalase (CAT). As to the kind of experiment: Catalase activity in lung tissue. The class given is in vivo, mouse. The conditions noted are these: male BALB/c mice, Mean ± SD, same dosing groups.
Another series relates to tissue factor (TF). As to the kind of experiment: Tissue factor activity in lung tissue (Quick's one-stage method). The class given is in vivo, mouse. The settings on record: male BALB/c mice, Mean ± SD, Quick's one-stage method using normal plasma, same dosing groups.
Series [2] concerns glutathione peroxidase (GPx). As to the kind of experiment: Glutathione peroxidase activity in lung tissue. The class given is in vivo, mouse. The settings on record: male BALB/c mice, Mean ± SD, same dosing groups.
A further series concerns Na^+K^+ATPase. In words: Na+K+ATPase activity in lung tissue. The conditions noted are these: male BALB/c mice, Mean ± SD, same dosing groups. The format is in vivo, mouse.
Series [3] relates to apoptotic cells in the lung (alveolar areas). As to the kind of experiment: TUNEL apoptotic index in alveolar area of lung. The format is in vivo, mouse. The settings on record: male BALB/c mice, teduglutide 200 μg/kg s.c. every 12 hours for 10 days, TNF-alpha 15 μg/kg i.p., Act D 800 μg/kg i.p. As to the method:
as §1, §2
TUNEL (Terminal deoxynucleotidyl transferase-mediated dUTP-nick end labeling assay) method was used to identify apoptotic cells in the lung. In this method, left lung sections fixed with 10% neutral formalin for 24 hours were used. Lung sections in thickness of 5 μm were treated with proteinase K (20 ug/ml) following rehydratation, and then endogenous peroxidase activity was blocked with 3% H2O2.
Marking step was carried out with commercially available ApopTag Plus Peroxidase kit (Millipore). The reaction in apoptotic cells was developed with […]. Following this process, cell nuclei were made visible in staining with methylene green. Mice breast tissue was used as positive control. […] TUNEL positive cells in the lung were analyzed under light microscope at 400× magnification. The apoptotic index value was calculated as a percentage of apoptotic cells in total number of cells.

Another series concerns lipid peroxidation (LPO). In words: Lipid peroxidation (LPO) level in lung homogenate. The class given is in vivo, mouse. The settings on record: lung tissue, male BALB/c mice, Mean ± SD, same dosing groups.
Another series has as its system GSH (glutathione). In words: GSH level in lung homogenate (Beutler method). The settings on record: lung tissue, male BALB/c mice, Mean ± SD, same dosing groups. The format is in vivo, mouse.
A further series deals with myeloperoxidase (MPO). As to the kind of experiment: Myeloperoxidase activity in lung tissue. The format is in vivo, mouse. The conditions noted are these: male BALB/c mice, Mean ± SD, same dosing groups.
For the next series, the system named is xanthine oxidase (XO). As to the kind of experiment: Xanthine oxidase activity in lung tissue. The settings on record: male BALB/c mice, Mean ± SD, same dosing groups. The format is in vivo, mouse.
Series [4] concerns alveolar wall of mice lung. In words: Hematoxylin-eosin histology of lung sections (alveolar wall damage). The conditions noted are these: HE-stained lung sections, male BALB/c mice; same dosing groups. The class given is in vivo, mouse. How it is done:
TNF-alpha and/or Act D was administered to mice in the experiments. Act D is used in order to increase the cytotoxic effect of TNF-alpha in lung tissues. In this way, pulmonary epithelial, endothelial and mesenchymal cells were damaged in mouse lung by stimulating apoptosis, inflammation and oxidative stress. TNF-alpha. Act D and especially the combination of TNF-alpha/Act D cause the damage in alveolar wall of mice lung; it reduces the tissue factor (TF) and sodium-potassium ATPase (Na-K-ATPase) activities while stimulating apoptosis in pulmonary endotheliaL % epithelial cells, myeloperoxidase (MPO) activity in tissue and oxidative stress.
(§3) In this study, 8-10 months male BALB/c mice were used. […]

Series [5] concerns patients with short bowel syndrome. The settings on record: s.c. 0.05 or 0.10 mg/kg/day; cited from earlier work.
The subject of a further series is type II pneumocytes. In words: Type II pneumocyte count (Pro-SPC immunostaining) in alveolar epithelium. The format is in vivo, mouse. The conditions noted are these: male BALB/c mice, Pro-SPC immunoreactive cells in total number of cells, same dosing groups. As to the method:
as §3
Strep-ABC immunostaining method was used in order to determine proliferative cells in the alveolar area. […] Furthermore, since it is known that type II pneumocytes give new ones to replace type I and type II pneumocytes which die or lose function in the damaged alveolar epithelium, the number of type II pneumocytes in the alveolar area were analyzed in the experimental groups. […] Proliferation index and number of type II pneumocytes in the alveolar area were calculated as ratio of immunoreactive cells in total number of cells, and the value was expressed as %. […]

The test system of series [6] is patients having intestinal damage with short bowel syndrome. The conditions noted are these: cited from earlier work.
Where [7] appears, read: humans, short bowel syndrome, teduglutide s.c. 0.05 or 0.10 mg/kg/day, 52 weeks.

Marks after values point to notes of the source that are not given here. Starred links: 1 amine or outer side, 2 acyl side, 3 side chain; linkers in the order of their positions; H or OH if unused. Positions of bridges follow the written chain, without caps; N, C: chain ends. Non-standard residues stand in square brackets, D forms with d. Residues, ends and D or L forms follow the SMILES beside them. Chains are numbered I, II in the order given. Actinocin(9to1) = Cc1c2oc3c(C)ccc(C(=O)[*:1])c3nc-2c(C(=O)[*:2])c(N)c1=O; NMeV = CN[C@H](C(=O)O)C(C)C; Sar = CNCC(=O)O

Turning to `Cc1c2oc3c(C)ccc(C(=O)N[C@@H]4C(=O)N[C@H](C(C)C)C(=O)N5CCC[C@H]5C(=O)N(C)CC(=O)N(C)[C@@H](C(C)C)C(=O)O[C@@H]4C)c3nc-2c(C(=O)N[C@@H]2C(=O)N[C@H](C(C)C)C(=O)N3CCC[C@H]3C(=O)N(C)CC(=O)N(C)[C@@H](C(C)C)C(=O)O[C@@H]2C)c(N)c1=O` [Act D, Actinomycin D] (I: T[dV]P[Sar][NMeV] / II: T[dV]P[Sar][NMeV]; ester I:1-I:C, II:1-II:C; linker I:N-II:N via Actinocin(9to1)), in the series on active caspase-3, the “caspase-3 index in alveolar areas in mice” value (from here on “caspase-3 index”) is reported as 0.02±0.005%. For the same compound, in series [1], the SOD is 8.21 ± 2.29^g U/mg protein. Moreover, the CAT with catalase (CAT) is on record as 29.76 ± 4.34^b U/mg protein. Moreover, in the series with tissue factor (TF), the TF was 50.50 ± 8.06^d sec. Also, in [2], the GPx is reported as 473.28 ± 78.26^c U/g protein. Further, the “Na^+K^+ATPase” value in the series on Na^+K^+ATPase is on record as 3.63 ± 1.13^a nmol Pi/mg protein/h.
With TNF-α, the “caspase-3 index” value in the series with active caspase-3 came to 0.08±0.005%. Further, the SOD in series [1] is on record as 6.99 ± 2.57^f U/mg protein. Further, the CAT in the series with catalase (CAT) is 42.44 ± 5.79^a U/mg protein. Besides, the “apoptotic index in alveolar areas in mice” value is 0.41±0.04% in series [3] and “no significant change in apoptotic index” in series [3] (listed as TNF-alpha). In addition, the TF in the series with tissue factor (TF) is reported as 49.08 ± 10.40^d sec. Moreover, the LPO with lipid peroxidation (LPO) is given as 4.51 ± 0.50^b nmol MDA/mg protein; with lipid peroxidation (LPO) (listed as TNF-alpha), “increased significantly”. For the same compound, the GSH in the series with GSH (glutathione) is listed as 10.16 ± 2.66^a nmol GSH/mg protein; with GSH (glutathione) (listed as TNF-alpha), “increased significantly”. Besides, the MPO with myeloperoxidase (MPO) (listed as TKF-α) is recorded as 193.80 ± 31.28^c mU/g tissue; with myeloperoxidase (MPO) (listed as TNF-alpha), “increased significantly”. Besides, in series [2], the GPx is on record as 453.86 ± 52.35^c U/g protein. Further, the XO was 21.53 ± 3.28^a U/mg protein with xanthine oxidase (XO) and “increased significantly” in the series with xanthine oxidase (XO) (listed as TNF-alpha). For the same compound, in the series with Na^+K^+ATPase, the “Na^+K^+ATPase” value is recorded as 3.96 ± 0.71^a nmol Pi/mg protein/h.
On to `CC[C@H](C)[C@H](NC(=O)[C@H](Cc1ccccc1)NC(=O)[C@H](CC(=O)O)NC(=O)[C@H](CCCNC(=N)N)NC(=O)[C@H](C)NC(=O)[C@H](C)NC(=O)[C@H](CC(C)C)NC(=O)[C@H](CC(N)=O)NC(=O)[C@H](CC(=O)O)NC(=O)[C@H](CC(C)C)NC(=O)[C@@H](NC(=O)[C@@H](NC(=O)[C@H](CC(N)=O)NC(=O)[C@H](CCSC)NC(=O)[C@H](CCC(=O)O)NC(=O)[C@H](CC(=O)O)NC(=O)[C@H](CO)NC(=O)[C@H](Cc1ccccc1)NC(=O)[C@H](CO)NC(=O)CNC(=O)[C@H](CC(=O)O)NC(=O)CNC(=O)[C@@H](N)Cc1c[nH]cn1)[C@@H](C)O)[C@@H](C)CC)C(=O)N[C@@H](CC(N)=O)C(=O)N[C@@H](Cc1c[nH]c2ccccc12)C(=O)N[C@@H](CC(C)C)C(=O)N[C@H](C(=O)N[C@@H](CCC(N)=O)C(=O)N[C@H](C(=O)N[C@@H](CCCCN)C(=O)N[C@H](C(=O)N[C@H](C(=O)N[C@@H](CC(=O)O)C(=O)O)[C@@H](C)O)[C@@H](C)CC)[C@@H](C)O)[C@@H](C)CC` [Teduglutide], for which the “caspase-3 index” value in the series on active caspase-3 was 0.00±0.00%; with active caspase-3 (listed as teduglutide), “decreased significantly in individuals previously treated with teduglutide to which TNF-alpha/Act D was administered”. Besides, the SOD in series [1] is listed as 7.36 ± 1.28^c U/mg protein. Further, the CAT in the series with catalase (CAT) is listed as 44.74 ± 7.52^d U/mg protein. The “apoptotic index in alveolar areas in mice” value in series [3] is given as “no significant change in apoptotic index”. Also, the “structure of alveolar wall / alveolar epithelium under light microscope” value in series [4] was “alveoli were in better condition”. In addition, the figures for the TF result with tissue factor (TF) and with tissue factor (TF) (listed as Tedoglutide) were “increases the TF activity” and 47.28 ± 9.91^d sec, respectively. Besides, in the series with lipid peroxidation (LPO), the LPO is 5.31 ± 1.71^b nmol MDA/mg protein. Further, the GSH in the series on GSH (glutathione) is on record as 43.67 ± 8.25^c nmol GSH/mg protein; in the series with GSH (glutathione) (listed as teduglutide) it was “increased significantly”. The MPO in the series on myeloperoxidase (MPO) was 88.93 ± 30.32^g mU/g tissue. Further, in series [2], the GPx is reported as 491.56 ± 171.49^b U/g protein. Besides, the XO in the series on xanthine oxidase (XO) (listed as Tedoglutide) is listed as 17.46 ± 3.16^a U/mg protein. Moreover, the “liver function tests (AST, ALT, ALP) and renal function tests (creatinine, urea, bilirubin, glomerular filtration speed)” value in series [5] was “improvement in liver function tests”. Further, the “Na^+K^+ATPase” value with Na^+K^+ATPase is on record as 6.46 ± 1.13^a nmol Pi/mg protein/h. Moreover, the “type II pneumocytes in alveolar epithelium of mouse lung” value is reported as 16.65±1.13% with type II pneumocytes and “significant decrease in type II pneumocyte number” in the series with type II pneumocytes (listed as teduglutide). Besides, the “reliability of long term use” value in series [6] (52 patients, s.c. 0.05 or 0.10 mg/kg/day for 52 weeks) is “reliable for long term use in humans”. Moreover, in [6] (setting [7]), the “adverse effect: abdominal pain” value is 25%. Also, the “adverse effect: headache” value in series [6] (setting [7]) was 35%. Besides, the “adverse effect: nausea” value in series [6] (setting [7]) is 31%.
